Reference: patent publication US10543217B2, “Method of treating frailty” (Organext Research B.V., priority 2009, dated 2020)

Legend:
Type in all cases: cell-based
[1] = system: vitamin D receptor expression in human skeletal muscle cells (hSkMC1); experiment: Vitamin D receptor expression by flow cytometry, hSkMC1 cells; conditions: compared with hSkMC2, data not shown
Method: (§1) Two different batches of human skeletal muscle cells or satellite cells (hSkMC1—obtained from a healthy person—and hSkMC2—obtained from a healthy person) were obtained from PromoCell (Heidelberg, Germany) and cultured in flasks according to the instructions by the provider. Cells were harvested and stored in liquid nitrogen until used for the experiments. Cells were not used at passage number higher than 15. For the experiments cells were cultured at 37° C. and 5% CO2 at a density of 3,500-7,000 cells/cm2 in basal medium (PromoCell) plus the addition of 5% charcoal (Sigma-Aldrich) treated fetal bovine serum (FBS) (PAA, Germany) using 24-well plates (Costar) til about 80% confluency.
(§2) Androgen and vitamin D receptor staining protocols with the subsequent visualization by flow cytometry methods were derived from the publications of Krishan et al. (2000) and Folgueira et al. (2000). […] All solutions further contained Tween 20 (Sigma Aldrich) as detergent to maintain the permeabilized status of the cells throughout the entire staining experiment. The staining in non-stimulated and stimulated cells were compared by determining the intensity of the staining in the cells as well as the staining in the % of cells. […] The increase in the % of stained cells beyond the setpoint of the marker (at 1% for background staining) was determined with and without hormonal treatment.

[2] = system: human skeletal muscle cells (hSkMC2); experiment: Proliferation of human skeletal muscle cells, batch hSkMC2 (resazurin assay)
Method: as §1
(§3) Medium and hormones were replaced on day 1, 4 and 7. Proliferation was measured using the resazurin assay (Stern-Straeter et al., 2008). Statistical analysis of the proliferation data was performed with the Student's t-test.

[3] = system: human skeletal muscle cells (hSkMC1); experiment: Proliferation of human skeletal muscle cells, batch hSkMC1 (resazurin assay); conditions: for Effect on proliferation (FIG. 3a, in words): individual compounds and all 4 combinations, combinations P<0.001, except 100 nM nandrolone plus 100 nM P<0.05
Method: as §1, §3

[4] = system: vitamin D receptor (VD3R) expression in human skeletal muscle cells (hSkMC2); experiment: Vitamin D receptor expression by flow cytometry, hSkMC2 cells; conditions: 5 days of treatment, flow cytometry (FIG. 2)
Method: as §1, §2

| SMILES | Effect on vitamin D receptor expression [1] | Percentage increase (% Δ) in proliferation compared to control ([2]; 10 nM dhvit D3, 8 days) | Percentage increase (% Δ) in proliferation compared to control ([2]; 100 nM dhvit D3, 8 days) | Effect on proliferation (FIG. 3b, in words) ([2]; higher concentrations of 1α,25-dihydroxyvitamin D3, 4 combinations vs control P<0.05, except 100 nM nandrolone plus 10 nM P<0.001) | Percentage increase (% Δ) in proliferation compared to control ([3]; 10 nM dhvit D3, 8 days) | Percentage increase (% Δ) in proliferation compared to control ([3]; 100 nM dhvit D3, 8 days) | Effect on proliferation (FIG. 3a, in words) [3] | Percentage increase (% Δ) in proliferation compared to control ([2]; 100 nM nandrolone, 8 days) | Percentage increase (% Δ) in proliferation compared to control ([2]; 1000 nM nandrolone, 8 days) | Percentage increase (% Δ) in proliferation compared to control ([3]; 100 nM nandrolone, 8 days) | Percentage increase (% Δ) in proliferation compared to control ([3]; 1000 nM nandrolone, 8 days) | Change in number of cells with positive vitamin D receptor [4] |
| --- | --- | --- | --- | --- | --- | --- | --- | --- | --- | --- | --- | --- |
| C=C1/C(=C\C=C2/CCC[C@]3(C)[C@@H]([C@H](C)CCCC(C)(C)O)CC[C@@H]23)C[C@@H](O)C[C@@H]1O [dhvit D3, 1α,25-dihydroxyvitamin D3] | less pronounced | 1% | 8% | an increase in proliferation | 1% | −5% | no effect on proliferation |  |  |  |  |  |
| C[C@]12CC[C@H]3[C@@H](CCC4=CC(=O)CC[C@@H]43)[C@@H]1CC[C@@H]2O [nandrolone] | less pronounced |  |  |  |  |  | no effect on proliferation | 4% | 1% | 3% | 1% | increases |
